From patent US9676760B2, “Fused heterocyclic compounds as ion channel modulators” (Gilead Sciences, Inc., priority 2011, dated 2017) come the findings set out here.

Structures are written as SMILES.

Sequence of wild-type human cardiac sodium channel, hNav1.5 (Q14524 whole entry): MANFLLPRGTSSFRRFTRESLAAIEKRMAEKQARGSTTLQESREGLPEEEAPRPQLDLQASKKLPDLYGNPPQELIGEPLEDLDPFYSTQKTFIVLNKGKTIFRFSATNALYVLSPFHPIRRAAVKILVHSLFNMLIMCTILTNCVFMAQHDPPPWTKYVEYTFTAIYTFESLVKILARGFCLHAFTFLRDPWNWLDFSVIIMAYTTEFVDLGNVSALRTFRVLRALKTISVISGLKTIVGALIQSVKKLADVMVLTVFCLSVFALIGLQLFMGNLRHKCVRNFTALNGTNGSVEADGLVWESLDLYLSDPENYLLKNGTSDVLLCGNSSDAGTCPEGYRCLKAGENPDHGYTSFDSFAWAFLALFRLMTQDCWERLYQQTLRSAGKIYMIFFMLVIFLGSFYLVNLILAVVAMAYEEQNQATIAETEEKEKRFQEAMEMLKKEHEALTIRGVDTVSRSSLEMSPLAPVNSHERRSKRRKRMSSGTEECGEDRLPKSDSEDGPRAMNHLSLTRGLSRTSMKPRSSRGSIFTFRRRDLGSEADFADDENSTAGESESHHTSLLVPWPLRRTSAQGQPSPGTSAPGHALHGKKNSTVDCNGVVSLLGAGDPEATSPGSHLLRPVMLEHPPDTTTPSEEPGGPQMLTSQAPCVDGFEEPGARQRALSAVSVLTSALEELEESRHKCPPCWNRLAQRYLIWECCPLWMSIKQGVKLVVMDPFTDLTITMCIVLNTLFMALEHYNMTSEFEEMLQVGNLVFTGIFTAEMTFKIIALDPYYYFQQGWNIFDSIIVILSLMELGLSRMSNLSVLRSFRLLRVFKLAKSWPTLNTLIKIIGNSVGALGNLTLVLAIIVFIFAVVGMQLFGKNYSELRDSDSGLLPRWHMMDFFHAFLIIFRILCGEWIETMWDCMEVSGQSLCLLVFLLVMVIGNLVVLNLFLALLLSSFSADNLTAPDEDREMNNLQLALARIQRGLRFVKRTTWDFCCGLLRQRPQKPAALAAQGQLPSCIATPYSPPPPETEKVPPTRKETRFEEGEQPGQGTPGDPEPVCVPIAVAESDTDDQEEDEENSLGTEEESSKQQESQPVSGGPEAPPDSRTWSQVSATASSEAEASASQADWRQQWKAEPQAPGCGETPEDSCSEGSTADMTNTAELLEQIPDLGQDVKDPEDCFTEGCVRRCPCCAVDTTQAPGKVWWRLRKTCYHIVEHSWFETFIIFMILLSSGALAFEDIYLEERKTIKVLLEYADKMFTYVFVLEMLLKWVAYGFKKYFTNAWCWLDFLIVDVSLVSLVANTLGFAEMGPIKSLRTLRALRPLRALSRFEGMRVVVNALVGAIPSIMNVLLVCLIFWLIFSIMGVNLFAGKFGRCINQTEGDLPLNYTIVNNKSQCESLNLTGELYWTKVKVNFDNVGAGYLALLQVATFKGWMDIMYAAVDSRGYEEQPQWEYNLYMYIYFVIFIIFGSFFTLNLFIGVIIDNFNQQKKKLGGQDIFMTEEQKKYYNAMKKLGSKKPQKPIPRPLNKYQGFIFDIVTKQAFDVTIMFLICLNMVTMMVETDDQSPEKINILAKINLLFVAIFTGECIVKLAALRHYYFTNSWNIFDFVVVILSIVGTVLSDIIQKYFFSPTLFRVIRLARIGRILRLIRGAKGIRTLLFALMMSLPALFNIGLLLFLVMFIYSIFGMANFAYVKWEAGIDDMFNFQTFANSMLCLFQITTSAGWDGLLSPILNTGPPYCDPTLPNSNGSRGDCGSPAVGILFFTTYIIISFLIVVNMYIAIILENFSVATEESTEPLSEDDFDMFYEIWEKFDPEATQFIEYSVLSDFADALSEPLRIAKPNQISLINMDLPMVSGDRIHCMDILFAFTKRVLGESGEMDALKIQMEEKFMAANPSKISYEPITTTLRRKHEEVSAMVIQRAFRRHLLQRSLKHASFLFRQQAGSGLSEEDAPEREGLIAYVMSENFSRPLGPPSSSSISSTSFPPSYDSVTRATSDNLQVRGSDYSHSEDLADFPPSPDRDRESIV

For one experiment, the target named is wild-type human cardiac sodium channel, hNav1.5 (Homo sapiens, UniProt Q14524). The experiment in a line: Late INa screening assay (QPatch whole cell patch clamp, HEK293). The experiment is classed as cell-based. The note with it: HEK293, percent block of late INa; compound at 1 μM; 10 μM Tefluthrin; read-out: Late INa 1 μM. On the procedure:
The late sodium current (Late INa) and peak sodium current (Peak INa) assays are performed on an automated electrophysiology platform, QPatch 16× (Sophion Bioscience, Copenhagen, Denmark), which uses the whole cell patch clamp technique to measure currents through the cell membrane of up to 16 cells at a time. The assay uses an HEK293 (human embryonic kidney) cell line heterologously expressing the wild-type human cardiac sodium channel, hNav1.5, purchased from Millipore (Billerica, Mass.). No beta subunits were coexpressed with the Na channel alpha subunit. Cells are maintained with standard tissue culture procedures and stable channel expression is maintained with 400 μg/mL Geneticin in the culture medium. Cells isolated for use on QPatch are incubated for 5 minutes in Detachin 1×(Genlantis, San Diego, USA) at 37° C. to ensure that 80-90% of the cells are single and not part of a cell cluster. Experiments are carried out at 23-25° C.
For both the Late INa and Peak INa assays, series resistance compensation is set to 100% and series resistance and whole-cell compensation are performed automatically. Currents are digitized at 25 kHz and low-pass filtered at 12 kHz and 10 kHz for the late and peak INa assays, respectively. Currents through open sodium channels are automatically recorded and stored in the Sophion Bioscience Oracle database (Sophion Bioscience, Copenhagen, Denmark). Analysis is performed using QPatch Assay and database software and data are compiled in Excel.
Compound stocks are routinely made by the Gilead Sample Bank in plastic vials to 10 mM in dimethyl sulfoxide (DMSO). In some cases, when compounds are not soluble in DMSO, they are made in 100% ethanol. Stocks are sonicated as necessary. The extracellular solution for screening Late INa is composed of: 140 mM NaCl, 4 mM KCl, 1.8 mM CaCl2, 0.75 mM MgCl2 and 5 mM HEPES with pH adjusted to 7.4 using NaOH. The intracellular solution used to perfuse the inside of the cells for both the Late INa and Peak INa assays contains: 120 mM CsF, 20 mM CsCl, 5 mM EGTA, 5 mM HEPES and pH adjusted to 7.4 with CsOH. Compounds are diluted in extracellular solution to 1 μM in glass vials and then transferred to glass well plates before robotic addition to the cells. The 0 mM Na extracellular solution (0Na-ECF) used at the end of each experiment for the Late INa and Peak INa assays to measure baseline current contains: 140 mM N-methyl-D-glucamine; 4 mM KCl; 1.8 mM CaCl2; 0.75 mM MgCl2; 5 mM HEPES and pH was adjusted to 7.4 with HCl.
For the Late INa assay, sodium channels are activated every 10 seconds (0.1 Hz) by depolarizing the cell membrane to −20 mV for 250 milliseconds (ms) from a holding potential of −120 mV. In response to a −20 mV voltage step, typical hNav1.5 sodium currents activate rapidly to a peak negative current and then inactivate nearly completely within 3-4 ms.
Compounds were tested to determine their activity in blocking the late sodium current. Late INa was generated by adding 10 μM Tefluthrin (pyrethroid) to the extracellular solution while recording Na currents. […] ATX-II and tefluthrin occupy distinct, non-overlapping binding sites and modify Na^+ channel function differently to increase late INa. […] After establishing the whole cell recording configuration, late INa activator is added to each well 4 times over a 16-17 minute period so that the late component of the Na current reaches a stable value.
Results are reported as percent block of late INa.
For orientation: Patch clamp records ionic current or voltage across a cell membrane.
`O=C1c2cc(-c3ccc(C(F)(F)F)cc3)ccc2OC[C@H]2CCCN12` [II-59, (R)-7-(4-(trifluoromethyl)phenyl)-2,3,11,11a-tetrahydrobenzo[f]pyrrolo[2,1-c][1,4]oxazepin-5(1H)-one]: the inhibition at 1 µM was 15%.
With `O=C1c2cc(-c3ccc(OC(F)(F)F)cc3)ccc2OCCN1Cc1ncc(Cl)cn1` [II-65, 4-((5-chloropyrimidin-2-yl)methyl)-7-(4-(trifluoromethoxy)phenyl)-3,4-dihydrobenzo[f][1,4]oxazepin-5(2H)-one], the inhibition at 1 µM stood at 19%.
In the case of `O=C1c2cc(-c3ccc(OC(F)(F)F)cc3)ccc2OCCN1Cc1ccncc1` [II-67, 4-(pyridin-4-ylmethyl)-7-(4-(trifluoromethoxy)phenyl)-3,4-dihydrobenzo[f][1,4]oxazepin-5(2H)-one], the inhibition at 1 µM stood at 22%.
As for `O=C1c2cc(-c3ccc(OC(F)(F)F)cc3)ccc2OCCN1Cc1nnc(C2CC2)o1` [II-68, 4-((5-cyclopropyl-1,3,4-oxadiazol-2-yl)methyl)-7-(4-(trifluoromethoxy)phenyl)-3,4-dihydrobenzo[f][1,4]oxazepin-5(2H)-one], the inhibition at 1 µM came to 17%.
`O=C1c2cc(-c3ccc(OC(F)(F)F)cc3)ccc2OCCN1CCOc1ncccn1` [II-69, 4-(2-(pyrimidin-2-yloxy)ethyl)-7-(4-(trifluoromethoxy)phenyl)-3,4-dihydrobenzo[f][1,4]oxazepin-5(2H)-one]: the inhibition at 1 µM stood at 33%.
Same read-out and setting: for `O=C1c2cc(-c3ccc(OC(F)(F)F)cc3)ccc2OCCN1Cc1cccnc1` [II-70, 4-(pyridin-3-ylmethyl)-7-(4-(trifluoromethoxy)phenyl)-3,4-dihydrobenzo[f][1,4]oxazepin-5(2H)-one] the value was 37%.
Still for that read-out and setting: for `O=C1c2cc(-c3ccc(OC(F)(F)F)cc3)ccc2OCCN1CCO` [II-71, 4-(2-hydroxyethyl)-7-(4-(trifluoromethoxy)phenyl)-3,4-dihydrobenzo[f][1,4]oxazepin-5(2H)-one] the value was 12%; for `O=C1NCCOc2ccc(-c3ccc(OC(F)(F)F)cc3)cc21` [II-74, 7-(4-(trifluoromethoxy)phenyl)-3,4-dihydrobenzo[f][1,4]oxazepin-5(2H)-one], 12%; for `CC(C)[C@H]1COc2ccc(-c3ccc(C(F)(F)F)cc3)cc2C(=O)N1` [II-77, (S)-3-isopropyl-7-(4-(trifluoromethyl)phenyl)-3,4-dihydrobenzo[f][1,4]oxazepin-5(2H)-one], 21%.
The same measure, in the same setting: for `Cc1ccc(-c2ccc3c(c2)C(=O)N(Cc2ncccn2)CCO3)cc1` [II-87, 4-(pyrimidin-2-ylmethyl)-7-p-tolyl-3,4-dihydrobenzo[f][1,4]oxazepin-5(2H)-one] the value was 22%; for `CC(C)c1ccc(-c2ccc3c(c2)C(=O)N(Cc2ncccn2)CCO3)cc1` [II-89, 7-(4-isopropylphenyl)-4-(pyrimidin-2-ylmethyl)-3,4-dihydrobenzo[f][1,4]oxazepin-5(2H)-one], 28%.
Turning to `O=C1c2cc(-c3ccc(C4CC4)cc3)ccc2OCCN1Cc1ncccn1` [II-92, 7-(4-cyclopropylphenyl)-4-(pyrimidin-2-ylmethyl)-3,4-dihydrobenzo[f][1,4]oxazepin-5 (2H)-one], the inhibition at 1 µM stood at 34%.
For the molecule `C[C@H](c1ncccn1)N1CCOc2ccc(-c3ccc(C(F)(F)F)cc3)cc2C1=O` [II-95, (R)-4-(1-(pyrimidin-2-yl)ethyl)-7-(4-(trifluoromethyl)phenyl)-3,4-dihydrobenzo[f][1,4]oxazepin-5(2H)-one], the inhibition at 1 µM is 19%.
`CC(C)COc1ccc(-c2ccc3c(c2)C(=O)N(Cc2ncccn2)CCO3)cc1` [II-97, 7-(4-isobutoxyphenyl)-4-(pyrimidin-2-ylmethyl)-3,4-dihydrobenzo[f][1,4]oxazepin-5 (2H)-one]: the inhibition at 1 µM is 36%.
Still for that read-out and setting: for `O=C1c2cc(-c3ccc(OC4CC4)cc3)ccc2OCCN1Cc1ncccn1` [II-102, 7-(4-cyclopropoxyphenyl)-4-(pyrimidin-2-ylmethyl)-3,4-dihydrobenzo[f][1,4]oxazepin-5(2H)-one] the value was 21%.
Turning to `O=C1c2cc(-c3ccc(F)cc3)ccc2OCCN1Cc1ncccn1` [II-104, 7-(4-fluorophenyl)-4-(pyrimidin-2-ylmethyl)-3,4-dihydrobenzo[f][1,4]oxazepin-5(2H)-one], the inhibition at 1 µM came out at 21%.
Still for that read-out and setting: for `O=C1c2cc(-c3ccc(OCC(F)(F)F)c(F)c3)ccc2OCCN1Cc1ncccn1` [II-106, 7-(3-fluoro-4-(2,2,2-trifluoroethoxy)phenyl)-4-(pyrimidin-2-ylmethyl)-3,4-dihydrobenzo[f][1,4]oxazepin-5(2H)-one] the value was 18%.
As for `O=C1c2cc(-c3ccc(OCC(F)(F)F)cc3)ccc2OCCN1Cc1ncccn1` [II-107, 4-(pyrimidin-2-ylmethyl)-7-(4-(2,2,2-trifluoroethoxy)phenyl)-3,4-dihydrobenzo[f][1,4]oxazepin-5(2H)-one], the inhibition at 1 µM worked out at 18%.
For the molecule `O=C1c2cc(-c3ccc(OC(F)(F)F)cc3)ccc2OCCN1Cc1nccc(C(F)(F)F)n1` [II-113, 7-(4-(trifluoromethoxy)phenyl)-4-((4-(trifluoromethyl)pyrimidin-2-yl)methyl)-3,4-dihydrobenzo[f][1,4]oxazepin-5(2H)-one], the inhibition at 1 µM stood at 27%.
The same measure, in the same setting: for `O=C1c2cc(-c3ccc(OC(F)(F)F)cc3)ccc2OCCN1Cc1ncc(-c2ccc(C(F)(F)F)nc2)cn1` [II-115, 7-(4-(trifluoromethoxy)phenyl)-4-((5-(6-(trifluoromethyl)pyridin-3-yl)pyrimidin-2-yl)methyl)-3,4-dihydrobenzo[f][1,4]oxazepin-5(2H)-one] the value was 21%; for `N#CC1(c2ccc(-c3ccc4c(c3)C(=O)N(Cc3ncccn3)CCO4)cc2)CCCC1` [II-122, 1-(4-(5-oxo-4-(pyrimidin-2-ylmethyl)-2,3,4,5-tetrahydrobenzo[f][1,4]oxazepin-7-yl)phenyl)cyclopentanecarbonitrile], 19%; for `CCOc1ccc(-c2ccc3c(c2)C(=O)N(Cc2ncccn2)CCO3)cc1` [II-123, 7-(4-ethoxyphenyl)-4-(pyrimidin-2-ylmethyl)-3,4-dihydrobenzo[f][1,4]oxazepin-5(2H)-one], 21%.
`O=C1c2cc(-c3ccc(C(F)F)cc3)ccc2OCCN1Cc1ncccn1` [II-124, 7-(4-(difluoromethyl)phenyl)-4-(pyrimidin-2-ylmethyl)-3,4-dihydrobenzo[f][1,4]oxazepin-5(2H)-one]: the inhibition at 1 µM came to 17%.
Regarding `O=C1c2cc(-c3ccc(OC(F)(F)F)cc3)ccc2OCCN1Cc1nccc(N2CCOCC2)n1` [II-133], the inhibition at 1 µM stood at 23%.
Same read-out and setting: for `O=C1c2cc(-c3ccc(C(F)(F)F)c(F)c3)ccc2OCCN1Cc1ncccn1` [II-136, 7-(3-fluoro-4-(trifluoromethyl)phenyl)-4-(pyrimidin-2-ylmethyl)-3,4-dihydrobenzo[f][1,4]oxazepin-5(2H)-one] the value was 30%.
Consider `O=C1c2cc(-c3ccc(OC(F)(F)F)cc3)ccc2OCCN1Cc1nccc(N2CCCCC2)n1` [II-139, 4-((4-(piperidin-1-yl)pyrimidin-2-yl)methyl)-7-(4-(trifluoromethoxy)phenyl)-3,4-dihydrobenzo[f][1,4]oxazepin-5(2H)-one], for which the inhibition at 1 µM came to 31%.
The same measure, in the same setting: for `CN(C)c1ccnc(CN2CCOc3ccc(-c4ccc(OC(F)(F)F)cc4)cc3C2=O)n1` [II-140, 4-((4-(dimethylamino)pyrimidin-2-yl)methyl)-7-(4-(trifluoromethoxy)phenyl)-3,4-dihydrobenzo[f][1,4]oxazepin-5(2H)-one] the value was 32%.

The experiment is the same for the next values; noted with them: percent block of late INa; compound at 1 μM; 10 μM Tefluthrin.
As to `O=C1c2cc(-c3ccc(C(F)(F)F)cc3)ccc2OCCN1Cc1cn2ccccc2n1` [II-135, 4-(imidazo[1,2-a]pyridin-2-ylmethyl)-7-(4-(trifluoromethyl)phenyl)-3,4-dihydrobenzo[f][1,4]oxazepin-5(2H)-one], the “Late INa 1 μM” value is given as 32%.
